Test results taken from patent publication US5240957A, “Oxysalicylamido derivatives” (Astra Lakemedel Akteibolag, priority 1984, dated 1993).

What was measured:
[1] = test system: apomorphine syndrome; conditions: claimed in prior art; cited from earlier work
[2] = biological target: T1, dopamine receptors (Rattus norvegicus, UniProt P61169); experiment: Receptor binding assay: in vitro block of 3H-spiperone binding, rat striatal membranes; parameters: species or system Male Sprague-Dawley rats; conditions: rat striatum; 3H-spiperone 0.4 nM; 10 minutes at 37° C.
T1 construct: The striata were dissected, pooled and homogenized in 50 mM Tris-HCl buffer (pH 7.6); from tissue; host or cells: striata of male Sprague-Dawley rats, membrane fraction
Protocol: The assays have been carried out using a cell harvester equipment. The incubations were made in quadruplicate, each well containing membrane suspension (2.5 mg/0.5 ml), ^3 H-spiperone (0.4 nM) and the test compound in a final volume of 0.5 ml. After incubation for 10 minutes at 37° C., the contents of the wells were rapidly filtered and washed on Whatman GF/B filters using the Cell harvester. The specific binding was defined as the difference of ligand bound in the […] of 1 μM (+)-butaclamol. The test results are expressed as IC50.

[3] = test system: DA receptors linked to the nigro neostriatal DA system (apomorphine stereotypies); experiment: Reduction of apomorphine-induced stereotypies in the rat; format: in vivo, Male Sprague-Dawley rats; conditions: i.p.; 60 min prior to apomorphine hydrochloride 1 mg/kg s.c.; 60 min observation
Excerpt: (§1) There are presently several techniques available to study DA receptor blockage in the brain in vivo. One method is based on the ability of antipsychotic drugs to block the behavioral effects induced by the DA agonist apomorphine in the rat. Several studies indicate an excellent correlation between the in vivo DA receptor blockage as measured in the apomorphine test and therapeutic efficacy of different antipsychotic drugs. Apomorphine produces in rats and other species a characteristic syndrome consisting of repetitive movements (stereotypies) and hyperactivity which appear to be due to activation of postsynaptic DA receptors in the brain (J. Pharm. Pharmacol. 19, 627, 1967; J. Neurol. transm. 40, 97-113, 1977). […]
Directly after injection, the animals were placed in the cages, one in each cage. […] The strength of the stereotype was scored on a 0-3 scale as follows:
(§2) In the second system the number of animals displaying hyperactivity caused by apomorphine were scored. […] The ED50 were calculated from log dose-response curves by the method of least squares from 4-6 dose levels with 6-8 animals per dose level.

[4] = test system: DA receptors in subcortical mesolimbic structures (apomorphine hyperactivity); experiment: Reduction of apomorphine-induced hyperactivity in the rat; format: in vivo, Male Sprague-Dawley rats; conditions: i.p.; 60 min prior to apomorphine hydrochloride 1 mg/kg s.c.; 60 min observation
Excerpt: as §1, with “1977). The stereotypies (chewing, licking, biting) appear mainly to be induced via activation of DA receptors linked to the nigro neostriatal DA system (J. Psychiat. Res., 11, 1, 1974) whereas the increased locomotion (hyperactivity) mainly appears to be due to activation of DA receptors in subcortical mesolimbic structures (nucleus olfactorium, nucleus accumbens) i.e. the mesolimbic DA system. (J. Pharm. Pharmacol. 25, 1003, 1973).” for “1977).”
as §2

T1 sequence (P61169 whole entry): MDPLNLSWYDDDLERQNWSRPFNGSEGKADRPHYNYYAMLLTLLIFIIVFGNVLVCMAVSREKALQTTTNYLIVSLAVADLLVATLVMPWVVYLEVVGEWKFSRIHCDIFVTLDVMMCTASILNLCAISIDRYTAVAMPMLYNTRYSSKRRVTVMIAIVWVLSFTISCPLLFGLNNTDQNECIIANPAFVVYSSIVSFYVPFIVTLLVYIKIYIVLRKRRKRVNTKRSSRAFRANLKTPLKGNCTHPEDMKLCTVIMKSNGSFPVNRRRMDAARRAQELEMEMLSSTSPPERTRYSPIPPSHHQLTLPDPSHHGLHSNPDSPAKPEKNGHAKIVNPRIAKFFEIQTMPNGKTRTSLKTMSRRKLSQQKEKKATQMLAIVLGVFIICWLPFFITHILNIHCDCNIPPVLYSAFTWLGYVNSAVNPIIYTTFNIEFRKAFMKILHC

Structure (SMILES)	IC50 [2]	further results
CCN1CCCC1CNC(=O)c1c(O)c(Cl)cc(Cl)c1OC (centres unmarked)		antagonism/inhibition of the apomorphine syndrome in the rat [1]: potent inhibitors
CCCc1cc(OC)c(OC)c(C(=O)NC[C@@H]2CCCN2CC)c1O	2.4 nM	
CCN1CCC[C@H]1CNC(=O)c1c(O)c(Br)cc(OC)c1OC	1.4 nM	
CCc1cc(OC)c(OC)c(C(=O)NC[C@@H]2CCCN2CC)c1O	1.3 nM	
CCN1CCC[C@H]1CNC(=O)c1c(O)ccc(OC)c1OC	8.8 nM	
CCN1CCC[C@H]1CNC(=O)c1c(O)c(Cl)cc(OC)c1OC	0.3 nM	
C=CCN1CCC[C@H]1CNC(=O)c1c(O)c(Br)cc(OC)c1OC	2.3 nM	
COc1cc(Br)c(O)c(C(=O)NC[C@H]2CCCN2Cc2ccc(F)cc2)c1OC	1.3 nM	
CCN1CCC[C@H]1CNC(=O)c1c(O)c(Cl)cc(Cl)c1OC		Reduction of stereotypies ED50 [3]: 2.4 µmol/kg; Reduction of hyperactivity ED50 [4]: 0.11 µmol/kg
CCN1CCC[C@H]1CNC(=O)c1c(OC)ccc(Br)c1OC [Remoxipride]		antagonism/inhibition of the apomorphine syndrome in the rat [1]: potent antagonist
